Results published in PubChem BioAssay AID675 (The Scripps Research Institute Molecular Screening Center, 2007).
Active and inactive are the calls of the source.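 The calls were made as follows: active = EC50 at or below a set limit for turning on the RORA orphan receptor reporter; inactive = the rest.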

The molecules below were run against Nuclear receptor ROR-alpha (Homo sapiens) (UniProt P35398) (assay: RORA Gal4 reporter activation in CHO-K1 cells, dose response, counter-screen for SF-1 activator project, cell-based, Gal4-RORA LBD, luciferase luminescence (AID 675)).
Nuclear receptor ROR-alpha (Homo sapiens), sequence (P35398 whole entry, looked up, the tested form may be a part): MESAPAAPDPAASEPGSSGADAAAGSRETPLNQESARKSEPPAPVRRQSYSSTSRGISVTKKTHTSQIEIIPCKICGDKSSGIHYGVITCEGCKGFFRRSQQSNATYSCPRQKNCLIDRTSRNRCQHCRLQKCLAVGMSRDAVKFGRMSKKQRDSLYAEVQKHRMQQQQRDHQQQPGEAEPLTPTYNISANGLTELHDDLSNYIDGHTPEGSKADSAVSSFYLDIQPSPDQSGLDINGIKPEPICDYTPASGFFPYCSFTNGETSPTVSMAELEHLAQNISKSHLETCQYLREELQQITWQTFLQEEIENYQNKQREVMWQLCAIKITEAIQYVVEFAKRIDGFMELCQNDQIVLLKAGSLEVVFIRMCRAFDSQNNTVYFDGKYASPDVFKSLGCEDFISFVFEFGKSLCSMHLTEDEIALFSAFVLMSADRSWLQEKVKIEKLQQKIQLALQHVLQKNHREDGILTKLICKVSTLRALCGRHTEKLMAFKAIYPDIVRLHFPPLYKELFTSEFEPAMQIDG
COC(=O)c1ccc(/C(O)=C(\C#N)c2nc3ccccc3s2)cc1 showed an EC50 of 1.61 µM. C/C(N)=C(/C#N)C(=O)CSc1ccc2c(c1)OCCO2 showed an EC50 of 1.17 µM. With O=C1CCCC(O)=C1C=Nc1ccc(O)cc1 the EC50 was > 99 µM (inactive). Molecule Cc1ccc(C2/C(=C(\O)c3cnn(-c4ccccc4)c3C)C(=O)C(=O)N2CCN(C)C)o1 (stereo not drawn) has an EC50 of 4.13 µM. In the case of COc1cc(C2C3C(=O)N(c4ccccc4)C(=O)C3ON2c2ccccc2)ccc1O (stereo not drawn), the EC50 is reported as > 33 µM (inactive). CC1(C)CC(=O)C(C=Nc2ccc3[nH]ncc3c2)=C(O)C1 showed an EC50 of 9.88 µM. Molecule COc1ccc(C(=O)/C=C/Nc2cccc(C)n2)cc1OC has an EC50 of 0.749 µM. For CC1(C)CC(=O)C(C=Nc2ccccc2)=C(O)C1, the EC50 was > 99 µM (inactive).
